Results on 1 molecule are retold here after patent publication US20150351380A1, “TISSUE-PRESERVING LIQUID AND TISSUE-PRESERVING METHOD” (OSAKA UNIVERSITY, priority 2012, published 2015).

For this assay, the system named is luciferase transgenic rat-derived oral mucosal cell sheet. Kind of assay: Residual ATP level in luciferase transgenic rat-derived oral mucosal cell sheet after preservation and post-preservation culture. The assay is classed as cell-based. Particulars: tBHQ in HBSS (1 μM, 10 μM, 100 μM). The method, then:
An oral tissue of a luciferase transgenic rat (Hakamata Y, Murakami T, Kobayashi E., Transplantation 2006; 81(8): 1179-1184) was provided by Dr. Eiji Kobayashi in the Division of Development of Advanced Treatment, Jichi Medical University. The oral tissue was washed twice with DMEM (Gibco) supplemented with 1% antibiotics and antimycotics (AbAm, Gibco). The washed tissue was immersed in a solution of dispase I (1,000 PU/ml) in DMEM supplemented with 1% AbAm at 4° C. for 4 hours. After the dispase treatment, the tissue was transferred into a 0.02% EDTA solution (nacalai tesque), immersed therein at room temperature for 2 minutes, and washed twice with PBS. […]
The ATP level in a cell sheet correlates with the viability of the cell sheet. The ATP levels in a cell sheet before preservation, after preservation and after post-preservation culture were measured as an indicator of the viability of the cell sheet. […] After this, the 96-well plate was set in a luminescence microplate reader Centro LB960 (Berthold Technologies GmbH & Co. KG), and according to the device settings of the microplate reader, addition of luciferin (final concentration; 0.19 mg/ml) and measurement of the ATP level were conducted. The measurement temperature was 4° C., the single reading time was 2 seconds, and the total reading time was 12 minutes. […]

On to `CC(C)(C)c1cc(O)ccc1O` [tBHQ, tert-butylhydroquinone], for which the “residual ATP level after 7 days of preservation compared with HBSS without additive” value is recorded as “higher”.
